Measured values: patent US8445503B2, “Inhibitors of polo-like kinase” (Elan Pharmaceuticals, Inc., priority 2009, dated 2013)

Legend:
PLK1 = PLK1 (Homo sapiens, UniProt P53350); assay: Kinase panel screening at InVitrogen Corporation, PLK1; conditions: screening at 10 μM compound
PLK2 = PLK2 (Homo sapiens, UniProt Q9NYY3); assay: Kinase panel screening at InVitrogen Corporation, PLK2; conditions: screening at 10 μM compound
ABL1 = ABL1 (Homo sapiens, UniProt P00519); assay: Kinase panel screening and titration, ABL1
KDR = KDR (Homo sapiens, UniProt P35968); assay: Kinase panel screening and titration, KDR
[1] = system: over 300 kinases, including CDK-1, CDK-2, CDK-5, CLK-1, CLK-2, CLK-3, CLK-4, NEK-1, NEK-2, NEK-4, NEK-6, NEK-7, MAP4K4 and STK16; assay: Kinase panel screening at InVitrogen Corporation, over 300 kinases; conditions: 10 μM compound; all but 21 of over 300 kinases, including CDK-1, CDK-2, CDK-5, CLK-1 to CLK-4, NEK-1, -2, -4, -6, -7, MAP4K4, STK16
GST-PLK1 = GST-PLK1 (Homo sapiens, UniProt P53350); assay: PLK TR-FRET peptide assay, PLK1; assay type: biochemical; conditions: read-out: Plk1 IC50
GST-PLK3 = target: T1, GST-PLK3 (Homo sapiens, UniProt Q9H4B4); assay: PLK TR-FRET peptide assay, PLK3; assay type: biochemical; conditions: PLK TR-FRET peptide assay, GST-PLK3; read-out: Plk3 IC50
T1 construct: purchased CarnaBio

GST-PLK2 = target: T2, GST-PLK2 (Homo sapiens, UniProt Q9NYY3); assay: PLK TR-FRET peptide assay, PLK2; assay type: biochemical; conditions: PLK TR-FRET peptide assay, GST-PLK2; read-out: Plk2 IC50
T2 construct: purchased CarnaBio
T2 sequence (Q9NYY3 whole entry): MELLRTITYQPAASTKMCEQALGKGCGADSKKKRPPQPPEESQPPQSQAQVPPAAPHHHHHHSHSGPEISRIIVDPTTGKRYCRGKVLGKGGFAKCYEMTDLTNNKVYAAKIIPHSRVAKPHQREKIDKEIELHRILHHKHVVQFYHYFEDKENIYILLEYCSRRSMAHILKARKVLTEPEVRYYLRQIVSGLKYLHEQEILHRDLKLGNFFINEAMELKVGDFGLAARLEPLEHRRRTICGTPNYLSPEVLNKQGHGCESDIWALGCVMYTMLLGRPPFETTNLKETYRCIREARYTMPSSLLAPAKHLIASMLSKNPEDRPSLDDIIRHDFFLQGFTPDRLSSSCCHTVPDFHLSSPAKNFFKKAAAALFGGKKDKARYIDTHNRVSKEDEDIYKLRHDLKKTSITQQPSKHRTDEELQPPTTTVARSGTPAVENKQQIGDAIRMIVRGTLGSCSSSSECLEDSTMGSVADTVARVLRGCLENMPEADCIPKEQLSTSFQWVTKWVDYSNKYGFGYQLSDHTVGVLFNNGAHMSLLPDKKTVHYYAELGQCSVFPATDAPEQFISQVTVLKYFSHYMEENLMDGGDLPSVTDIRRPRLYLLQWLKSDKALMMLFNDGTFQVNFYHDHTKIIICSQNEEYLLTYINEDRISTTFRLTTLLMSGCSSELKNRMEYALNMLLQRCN

PLK1, sequence (P53350 whole entry): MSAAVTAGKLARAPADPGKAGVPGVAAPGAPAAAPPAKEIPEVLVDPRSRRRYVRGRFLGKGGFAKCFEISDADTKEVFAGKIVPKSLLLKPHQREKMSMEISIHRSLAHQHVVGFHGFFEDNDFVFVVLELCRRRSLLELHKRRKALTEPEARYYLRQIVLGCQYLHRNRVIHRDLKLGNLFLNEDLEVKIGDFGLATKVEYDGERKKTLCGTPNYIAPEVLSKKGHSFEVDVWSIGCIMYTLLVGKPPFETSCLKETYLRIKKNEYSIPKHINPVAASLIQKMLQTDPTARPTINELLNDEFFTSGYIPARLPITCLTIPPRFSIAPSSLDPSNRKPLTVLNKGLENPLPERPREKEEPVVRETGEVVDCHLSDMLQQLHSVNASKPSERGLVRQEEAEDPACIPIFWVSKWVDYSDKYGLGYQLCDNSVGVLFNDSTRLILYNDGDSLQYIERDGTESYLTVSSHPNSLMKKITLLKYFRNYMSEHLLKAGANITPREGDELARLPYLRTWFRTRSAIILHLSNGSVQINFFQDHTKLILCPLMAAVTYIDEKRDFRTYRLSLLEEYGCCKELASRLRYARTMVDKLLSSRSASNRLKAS
GST-PLK1, sequence (P53350 whole entry): as above
PLK2, sequence (Q9NYY3 whole entry): as the sequence (Q9NYY3 whole entry) above
T1 sequence (Q9H4B4 whole entry): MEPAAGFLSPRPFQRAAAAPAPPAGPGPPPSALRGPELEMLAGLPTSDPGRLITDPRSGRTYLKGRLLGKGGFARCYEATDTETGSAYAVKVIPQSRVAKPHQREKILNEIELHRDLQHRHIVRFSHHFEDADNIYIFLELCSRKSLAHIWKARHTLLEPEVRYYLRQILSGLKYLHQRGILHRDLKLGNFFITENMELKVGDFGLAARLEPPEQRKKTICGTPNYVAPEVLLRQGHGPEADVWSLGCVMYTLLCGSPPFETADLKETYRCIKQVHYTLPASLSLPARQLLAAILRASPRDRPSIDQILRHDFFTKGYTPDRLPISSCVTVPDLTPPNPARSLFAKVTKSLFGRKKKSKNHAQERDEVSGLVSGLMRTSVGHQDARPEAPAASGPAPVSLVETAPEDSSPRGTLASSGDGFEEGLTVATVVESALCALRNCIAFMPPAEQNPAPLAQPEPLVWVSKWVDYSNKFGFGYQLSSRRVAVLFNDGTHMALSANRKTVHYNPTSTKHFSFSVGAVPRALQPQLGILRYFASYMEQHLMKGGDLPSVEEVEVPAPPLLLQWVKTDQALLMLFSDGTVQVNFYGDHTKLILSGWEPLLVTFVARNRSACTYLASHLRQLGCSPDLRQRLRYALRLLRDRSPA
ABL1, sequence (P00519 whole entry): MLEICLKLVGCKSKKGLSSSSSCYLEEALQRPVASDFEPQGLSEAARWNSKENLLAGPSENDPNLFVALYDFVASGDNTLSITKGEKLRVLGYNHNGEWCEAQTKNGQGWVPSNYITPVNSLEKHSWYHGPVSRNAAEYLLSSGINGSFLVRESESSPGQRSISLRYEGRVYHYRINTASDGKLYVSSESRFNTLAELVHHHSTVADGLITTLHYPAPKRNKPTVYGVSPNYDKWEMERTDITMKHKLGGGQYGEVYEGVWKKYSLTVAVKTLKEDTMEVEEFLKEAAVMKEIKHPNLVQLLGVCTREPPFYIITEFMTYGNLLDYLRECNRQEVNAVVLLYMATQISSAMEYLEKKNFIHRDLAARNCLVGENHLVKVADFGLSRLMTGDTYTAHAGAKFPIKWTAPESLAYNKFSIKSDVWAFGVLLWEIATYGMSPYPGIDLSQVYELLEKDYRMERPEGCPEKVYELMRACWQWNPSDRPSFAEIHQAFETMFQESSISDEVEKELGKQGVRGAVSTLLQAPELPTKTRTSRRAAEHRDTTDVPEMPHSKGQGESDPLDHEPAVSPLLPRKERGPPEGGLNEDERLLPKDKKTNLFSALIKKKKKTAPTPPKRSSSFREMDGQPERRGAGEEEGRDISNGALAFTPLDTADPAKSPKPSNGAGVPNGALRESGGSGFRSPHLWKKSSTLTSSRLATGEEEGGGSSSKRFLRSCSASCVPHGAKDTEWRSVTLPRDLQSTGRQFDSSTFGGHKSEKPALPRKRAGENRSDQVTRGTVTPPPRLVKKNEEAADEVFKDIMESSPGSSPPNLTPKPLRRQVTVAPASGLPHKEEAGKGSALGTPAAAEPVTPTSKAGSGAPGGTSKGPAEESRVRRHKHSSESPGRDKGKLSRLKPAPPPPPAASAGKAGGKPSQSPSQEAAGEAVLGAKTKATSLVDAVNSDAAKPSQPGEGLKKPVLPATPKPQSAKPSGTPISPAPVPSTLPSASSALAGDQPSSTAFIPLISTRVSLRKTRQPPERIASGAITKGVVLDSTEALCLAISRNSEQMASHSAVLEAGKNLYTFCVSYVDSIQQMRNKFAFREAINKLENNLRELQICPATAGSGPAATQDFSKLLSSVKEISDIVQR
KDR, sequence (P35968 20-1356): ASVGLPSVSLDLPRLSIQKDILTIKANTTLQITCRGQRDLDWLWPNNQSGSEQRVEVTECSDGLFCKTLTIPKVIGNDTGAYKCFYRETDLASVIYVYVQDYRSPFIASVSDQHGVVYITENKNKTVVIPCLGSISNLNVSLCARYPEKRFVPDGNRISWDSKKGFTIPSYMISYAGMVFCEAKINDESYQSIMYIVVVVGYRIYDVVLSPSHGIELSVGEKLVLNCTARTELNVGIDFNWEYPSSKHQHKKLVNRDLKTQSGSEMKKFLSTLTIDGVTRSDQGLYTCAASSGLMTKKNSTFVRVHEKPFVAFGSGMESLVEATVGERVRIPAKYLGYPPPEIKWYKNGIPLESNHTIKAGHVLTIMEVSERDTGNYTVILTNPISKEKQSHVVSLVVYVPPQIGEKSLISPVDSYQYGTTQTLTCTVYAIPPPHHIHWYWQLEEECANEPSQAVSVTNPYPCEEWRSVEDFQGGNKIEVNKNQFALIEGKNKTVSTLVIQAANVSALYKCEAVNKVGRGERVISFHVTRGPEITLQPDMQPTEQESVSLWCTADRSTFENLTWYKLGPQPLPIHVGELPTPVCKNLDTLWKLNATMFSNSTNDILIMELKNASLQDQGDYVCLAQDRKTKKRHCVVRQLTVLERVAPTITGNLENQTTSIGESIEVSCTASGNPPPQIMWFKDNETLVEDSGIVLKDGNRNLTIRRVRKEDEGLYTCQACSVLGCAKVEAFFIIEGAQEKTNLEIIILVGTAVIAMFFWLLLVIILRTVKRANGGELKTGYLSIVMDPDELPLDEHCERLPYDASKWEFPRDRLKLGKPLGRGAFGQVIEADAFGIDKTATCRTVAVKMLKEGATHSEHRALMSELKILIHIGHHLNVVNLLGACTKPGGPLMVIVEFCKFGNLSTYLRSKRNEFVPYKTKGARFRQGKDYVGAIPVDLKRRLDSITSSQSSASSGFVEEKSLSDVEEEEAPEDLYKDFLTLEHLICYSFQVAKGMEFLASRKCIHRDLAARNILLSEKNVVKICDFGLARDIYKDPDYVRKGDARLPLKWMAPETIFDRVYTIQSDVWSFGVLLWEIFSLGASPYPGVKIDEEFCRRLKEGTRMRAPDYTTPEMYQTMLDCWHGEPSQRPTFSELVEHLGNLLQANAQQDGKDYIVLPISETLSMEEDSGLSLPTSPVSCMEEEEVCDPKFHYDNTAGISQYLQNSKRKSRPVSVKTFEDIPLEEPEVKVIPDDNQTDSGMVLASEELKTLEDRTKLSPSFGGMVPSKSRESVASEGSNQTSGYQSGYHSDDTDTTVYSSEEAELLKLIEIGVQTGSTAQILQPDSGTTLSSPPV

IC50 (GST-PLK1)	IC50 (GST-PLK3)	IC50 (GST-PLK2)	SMILES	other results
			CC[C@@H]1C(=O)N(C)c2cnc(-n3ccnc3-c3cccc(F)c3)nc2N1C1CCOC1 (stereo partly drawn) [Example 192]	activity against PLK1 in kinase panel (PLK1): potent; activity against PLK2 in kinase panel (PLK2): potent; percent inhibition of ABL1 (ABL1; 10 μM compound): greater than 80%; IC50 (ABL1; read-out: IC50 ABL1, when titrated): > 10 µM; percent inhibition of KDR (KDR; 10 μM compound): greater than 80%; IC50 (KDR; read-out: IC50 KDR, when titrated): > 10 µM; percent inhibition of kinase [1]: below 40%
			CC[C@@H]1C(=O)N(C)c2cnc(-n3ccnc3-c3ccccc3)nc2N1C1CCCC1 [Example 26, (R)-8-cyclopentyl-7-ethyl-5-methyl-2-(2-phenyl-1H-imidazol-1-yl)-7,8-dihydropteridin-6(5H)-one]	activity against PLK2 in kinase panel (PLK2): potent
			CC[C@@H]1C(=O)N(C)c2cnc(-n3ccnc3-c3cscn3)nc2N1C1CCCC1 [Example 68]	activity against PLK1 in kinase panel (PLK1): potent; activity against PLK2 in kinase panel (PLK2): potent
1 to 10 µM	10 to 50 µM	< 1 µM	CC[C@@H]1C(=O)N(C)c2cnc(-n3ccnc3-c3ccc(S(C)(=O)=O)cc3)nc2N1C1CCCC1 [Example 79, (R)-8-cyclopentyl-7-ethyl-5-methyl-2-(2-(4-(methylsulfonyl)phenyl)-1H-imidazol-1-yl)-7,8-dihydropteridin-6(5H)-one]	
> 50 µM	> 50 µM	1 to 10 µM	CC[C@@]12CCCN1c1nc(-n3ccnc3-c3cccnc3)ncc1N(C)C2=O [Example 137, (S)-6a-ethyl-5-methyl-2-(2-(pyridin-3-yl)-1H-imidazol-1-yl)-6a,7,8,9-tetrahydropyrrolo[2,1-h]pteridin-6(5H)-one]	
1 to 10 µM	1 to 10 µM	< 1 µM	CC[C@@]12CCCN1c1nc(-n3ncnc3-c3ccccc3)ncc1N(C)C2=O [Example 189, (S)-6a-ethyl-5-methyl-2-(5-phenyl-1H-1,2,4-triazol-1-yl)-6a,7,8,9-tetrahydropyrrolo[2,1-h]pteridin-6(5H)-one]	
1 to 10 µM	10 to 50 µM	< 1 µM	CC[C@@H]1C(=O)N(C)c2cnc(-n3cnc(C(=O)N4CCOCC4)c3)nc2N1C1CCCC1 [Example 45, (R)-8-cyclopentyl-7-ethyl-5-methyl-2-(4-(morpholine-4-carbonyl)-1H-imidazol-1-yl)-7,8-dihydropteridin-6(5H)-one]	
> 50 µM	> 50 µM	> 50 µM	CC[C@H]1C(=O)N(C)c2cnc(-n3ccnc3-c3ccccc3)nc2N1c1cnn(C)c1 [Example 410, (S)-7-ethyl-5-methyl-8-(1-methyl-1-pyrazol-4-yl)-2-(2-phenyl-1H-imidazol-1-yl)-7,8-dihydropteridin-6(5H)-one]	
10 to 50 µM	> 50 µM	< 1 µM	CC[C@@H]1C(=O)N(C)c2cnc(-c3cn(C)nc3-c3nccs3)nc2N1c1cnn(C)c1 [Example 417, (R)-7-ethyl-5-methyl-8-(1-methyl-1H-pyrazol-4-yl)-2-(1-methyl-3-(thiazol-2-yl)-1H-pyrazol-4-yl)-7,8-dihydropteridin-6(5H)-one]	
10 to 50 µM	10 to 50 µM	< 1 µM	CC[C@@]12CCCN1c1nc(-n3ccnc3-c3ccncc3)ncc1N(C)C2=O [Example 101, (S)-6a-ethyl-5-methyl-2-(2-(pyridin-4-yl)-1H-imidazol-1-yl)-6a,7,8,9-tetrahydropyrrolo[2,1-h]pteridin-6(5H)-one]	
10 to 50 µM	1 to 10 µM	< 1 µM	CC[C@@]12CCCN1c1nc(-n3ccnc3-c3ccccc3)ncc1N(C)C2=O [Example 76, (S)-6a-ethyl-5-methyl-2-(2-phenyl-1H-imidazol-1-yl)-6a,7,8,9-tetrahydropyrrolo[2,1-h]pteridin-6(5H)-one]	activity against PLK1 in kinase panel (PLK1): potent; activity against PLK2 in kinase panel (PLK2): potent
1 to 10 µM	1 to 10 µM	< 1 µM	CC[C@@H]1C(=O)N(C)c2cnc(-n3ccc(C(N)=O)n3)nc2N1C1CCCC1 [Example 63, (R)-1-(8-cyclopentyl-7-ethyl-5-methyl-6-oxo-5,6,7,8-tetrahydropteridin-2-yl)-1H-pyrazole-3-carboxamide]	
1 to 10 µM	1 to 10 µM	1 to 10 µM	CC[C@@H]1C(=O)N(C)c2cnc(-n3ccc(C(=O)N(C)C)n3)nc2N1C1CCCC1 [Example 61, (R)-1-(8-cyclopentyl-7-ethyl-5-methyl-6-oxo-5,6,7,8-tetrahydropteridin-2-yl)-N,N-dimethyl-1H-pyrazole-3-carboxamide]	
< 1 µM	1 to 10 µM	< 1 µM	CC[C@@H]1C(=O)N(C)c2cnc(-n3cnc(C(=O)NC)c3)nc2N1C1CCCC1 [Example 46, (R)-1-(8-cyclopentyl-7-ethyl-5-methyl-6-oxo-5,6,7,8-tetrahydropteridin-2-yl)-N-methyl-1H-imidazole-4-carboxamide]	
< 1 µM	< 1 µM	< 1 µM	CC[C@@H]1C(=O)N(C)c2cnc(-n3cnc(C(=O)O)c3)nc2N1C1CCCC1 [Example 37, (R)-1-(8-cyclopentyl-7-ethyl-5-methyl-6-oxo-5,6,7,8-tetrahydropteridin-2-yl)-1H-imidazole-4-carboxylic acid]	

SMILES	IC50 (GST-PLK1)	IC50 (GST-PLK3)	IC50 (GST-PLK2)	other results
CC[C@@H]1C(=O)N(C)c2cnc(-n3ccnc3)nc2N1C1CCCC1 [Example 3, (R)-8-cyclopentyl-7-ethyl-2-(1H-imidazol-1-yl)-5-methyl-7,8-dihydropteridin-6(5H)-one]	< 1 µM	10 to 50 µM	< 1 µM	
